According to article doi:10.1101/2024.08.19.608619, “Discovery of potent SARS-CoV-2 nsp3 macrodomain inhibitors uncovers lack of translation to cellular antiviral response” (bioRxiv, 2024):
Like-named read-outs stand apart in the source and are kept apart here.

What was measured:
SARS-CoV-2 nsp3-mac1 [1] = biological target: T1, SARS-CoV-2 nsp3-mac1 (Severe acute respiratory syndrome coronavirus 2, UniProt P0DTD1); experiment: biochemical; type: biochemical; settings: SARS-CoV-2 nsp3 macrodomain TR-FRET single point
SARS-CoV-2 nsp3-mac1 [2] = biological target: T1, SARS-CoV-2 nsp3-mac1; experiment: biochemical; design: SARS-CoV-2 nsp3 macrodomain TR-FRET single point, per cent inhibition, n=2
[3] = read-out: perc_inhibition_mean, batch_name=ASAP-0000459-001
[4] = read-out: perc_inhibition_mean, batch_name=ASAP-0000348-001
[5] = read-out: perc_inhibition_mean, batch_name=ASAP-0000311-001
[6] = read-out: perc_inhibition_mean, batch_name=ASAP-0000422-001
[7] = read-out: perc_inhibition_mean, batch_name=ASAP-0000244-001
[8] = read-out: perc_inhibition_mean, batch_name=ASAP-0000317-001
[9] = read-out: perc_inhibition_mean, batch_name=ASAP-0000344-001
[10] = read-out: perc_inhibition_mean, batch_name=ASAP-0000417-001
[11] = read-out: perc_inhibition_mean, batch_name=ASAP-0000329-001
[12] = read-out: perc_inhibition_mean, batch_name=ASAP-0000245-001
[13] = read-out: perc_inhibition_mean, batch_name=ASAP-0000470-001
[14] = read-out: perc_inhibition_mean, batch_name=ASAP-0000385-001
[15] = read-out: perc_inhibition_mean, batch_name=ASAP-0000389-001
[16] = read-out: perc_inhibition_mean, batch_name=ASAP-0000257-001
[17] = read-out: perc_inhibition_mean, batch_name=ASAP-0000330-001

## c1ccc(Cn2ncc3c2CCC[C@@H]3Nc2ncnc3[nH]ccc23)cc1 [ASAP-0000074]
SARS-CoV-2 nsp3-mac1 [1]; concentration 50.0 uM
  perc_inhibition_mean: 5.848%
SARS-CoV-2 nsp3-mac1 [2]; read-out: perc_inhibition_mean, batch_name=ASAP-0000074-001
  inhibition at 50 µM: 5.85%

## O=C(C[C@@H](NC(=O)c1ncnc2[nH]ccc12)C1CC1)NCc1ccc(C(=O)O)cc1 [ASAP-0000459]
SARS-CoV-2 nsp3-mac1 [1]; concentration 49.75 uM
  perc_inhibition_mean: -9.862%
SARS-CoV-2 nsp3-mac1 [1]; concentration 99.5 uM
  perc_inhibition_mean: 0.768%
SARS-CoV-2 nsp3-mac1 [2]; [3]
  inhibition at 49.75 µM: -9.86%
  inhibition at 99.5 µM: 0.768%

## COC(=O)c1cc2c(Oc3ccccc3C#N)ncnc2[nH]1 [ASAP-0000135]
SARS-CoV-2 nsp3-mac1 [1]; concentration 50.0 uM
  perc_inhibition_mean: 2.922%
SARS-CoV-2 nsp3-mac1 [2]; read-out: perc_inhibition_mean, batch_name=ASAP-0000135-001
  inhibition at 50 µM: 2.92%

## O=C(NCc1c[nH]nn1)c1cnn2ccc(C3CCN(C(=O)c4ccccc4)CC3)cc12 [ASAP-0000348]
SARS-CoV-2 nsp3-mac1 [1]; concentration 49.75 uM, n=2
  perc_inhibition_mean: -2.856%
SARS-CoV-2 nsp3-mac1 [1]; concentration 99.5 uM, n=2
  perc_inhibition_mean: 2.165%
SARS-CoV-2 nsp3-mac1 [2]; [4]
  inhibition at 49.75 µM: -2.86%
  inhibition at 99.5 µM: 2.17%

## O=C(CCN(Cc1cccc(Cl)c1)C(=O)c1ccccc1F)N1CCNCC1 [ASAP-0000311]
SARS-CoV-2 nsp3-mac1 [1]; concentration 49.75 uM, n=2
  perc_inhibition_mean: -0.625%
SARS-CoV-2 nsp3-mac1 [1]; concentration 99.5 uM, n=2
  perc_inhibition_mean: 0.395%
SARS-CoV-2 nsp3-mac1 [2]; [5]
  inhibition at 49.75 µM: -0.625%
  inhibition at 99.5 µM: 0.395%

## O=C(c1ccc(O)nc1)N1CCC(c2ccn3ncc(C(=O)N4CCCCC4)c3c2)CC1 [ASAP-0000422]
SARS-CoV-2 nsp3-mac1 [1]; concentration 49.75 uM
  perc_inhibition_mean: 10.998%
SARS-CoV-2 nsp3-mac1 [1]; concentration 99.5 uM
  perc_inhibition_mean: 26.485%
SARS-CoV-2 nsp3-mac1 [2]; [6]
  inhibition at 49.75 µM: 11%
  inhibition at 99.5 µM: 26.5%

## C[C@]1(C(=O)O)CCCN1C(=O)c1ncnc2[nH]ccc12 [ASAP-0000244]
SARS-CoV-2 nsp3-mac1 [1]; concentration 50.0 uM
  perc_inhibition_mean: -5.285%
SARS-CoV-2 nsp3-mac1 [1]; concentration 100.0 uM
  perc_inhibition_mean: 5.665%
SARS-CoV-2 nsp3-mac1 [2]; [7]
  inhibition at 50 µM: -5.29%
  inhibition at 100 µM: 5.67%

## O=C(Nc1cnc2[nH]ncc2c1)c1ccccc1CN1CCOCC1 [ASAP-0000012]
SARS-CoV-2 nsp3-mac1 [1]; concentration 50.0 uM
  perc_inhibition_mean: -3.239%
SARS-CoV-2 nsp3-mac1 [2]; read-out: perc_inhibition_mean, batch_name=ASAP-0000012-001
  inhibition at 50 µM: -3.24%

## O=C(Nc1ccccc1)Nc1ccc(C(=O)Nc2nnc(C(F)(F)F)[nH]2)cc1 [ASAP-0000317]
SARS-CoV-2 nsp3-mac1 [1]; concentration 49.75 uM, n=2
  perc_inhibition_mean: -3.198%
SARS-CoV-2 nsp3-mac1 [1]; concentration 99.5 uM, n=2
  perc_inhibition_mean: -1.459%
SARS-CoV-2 nsp3-mac1 [2]; [8]
  inhibition at 49.75 µM: -3.2%
  inhibition at 99.5 µM: -1.46%

## O=C(CCN(Cc1cccc(Cl)c1)C(=O)[C@H]1C[C@H](O)C1)N1CCNCC1 [ASAP-0000344]
SARS-CoV-2 nsp3-mac1 [1]; concentration 49.75 uM, n=2
  perc_inhibition_mean: -2.133%
SARS-CoV-2 nsp3-mac1 [1]; concentration 99.5 uM, n=2
  perc_inhibition_mean: -3.766%
SARS-CoV-2 nsp3-mac1 [2]; [9]
  inhibition at 49.75 µM: -2.13%
  inhibition at 99.5 µM: -3.77%

## O=C(CCN(Cc1cccc(Cl)c1)C(=O)[C@@H]1C[C@@H](O)CN1)N1CCNCC1 [ASAP-0000417]
SARS-CoV-2 nsp3-mac1 [1]; concentration 49.75 uM
  perc_inhibition_mean: -3.538%
SARS-CoV-2 nsp3-mac1 [1]; concentration 99.5 uM
  perc_inhibition_mean: 4.743%
SARS-CoV-2 nsp3-mac1 [2]; [10]
  inhibition at 49.75 µM: -3.54%
  inhibition at 99.5 µM: 4.74%

## O=C(c1cc(O)ccn1)N1CCC(c2ccn3ncc(C(=O)N4CCCCC4)c3c2)CC1 [ASAP-0000329]
SARS-CoV-2 nsp3-mac1 [1]; concentration 49.75 uM, n=2
  perc_inhibition_mean: 17.623%
SARS-CoV-2 nsp3-mac1 [1]; concentration 99.5 uM, n=2
  perc_inhibition_mean: 32.165%
SARS-CoV-2 nsp3-mac1 [2]; [11]
  inhibition at 49.75 µM: 17.6%
  inhibition at 99.5 µM: 32.2%

## FC(F)(F)Oc1ccccc1-c1ncnc2[nH]ccc12 [ASAP-0000245]
SARS-CoV-2 nsp3-mac1 [1]; concentration 50.0 uM
  perc_inhibition_mean: -3.369%
SARS-CoV-2 nsp3-mac1 [1]; concentration 100.0 uM
  perc_inhibition_mean: 2.117%
SARS-CoV-2 nsp3-mac1 [2]; [12]
  inhibition at 50 µM: -3.37%
  inhibition at 100 µM: 2.12%

## C[C@@H](Nc1ncnc2[nH]ccc12)c1cnn(Cc2ccccc2)c1 [ASAP-0000470]
SARS-CoV-2 nsp3-mac1 [1]; concentration 49.75 uM
  perc_inhibition_mean: -4.105%
SARS-CoV-2 nsp3-mac1 [1]; concentration 99.5 uM
  perc_inhibition_mean: 3.18%
SARS-CoV-2 nsp3-mac1 [2]; [13]
  inhibition at 49.75 µM: -4.11%
  inhibition at 99.5 µM: 3.18%

## O=C(c1cnc2[nH]ncc2c1)N1CCC(c2ccn3ncc(C(=O)N4CCCCC4)c3c2)CC1 [ASAP-0000385]
SARS-CoV-2 nsp3-mac1 [1]; concentration 49.75 uM
  perc_inhibition_mean: 15.807%
SARS-CoV-2 nsp3-mac1 [1]; concentration 99.5 uM
  perc_inhibition_mean: 34.368%
SARS-CoV-2 nsp3-mac1 [2]; [14]
  inhibition at 49.75 µM: 15.8%
  inhibition at 99.5 µM: 34.4%

## O=C(c1cccnc1S)N1CCC(c2ccn3ncc(C(=O)N4CCCCC4)c3c2)CC1 [ASAP-0000389]
SARS-CoV-2 nsp3-mac1 [1]; concentration 49.75 uM
  perc_inhibition_mean: 32.298%
SARS-CoV-2 nsp3-mac1 [1]; concentration 99.5 uM
  perc_inhibition_mean: 52.653%
SARS-CoV-2 nsp3-mac1 [2]; [15]
  inhibition at 49.75 µM: 32.3%
  inhibition at 99.5 µM: 52.7%

## C(=C1CCCCC1)c1ncnc2[nH]ccc12 [ASAP-0000257]
SARS-CoV-2 nsp3-mac1 [1]; concentration 50.0 uM, n=2
  perc_inhibition_mean: -5.46%
SARS-CoV-2 nsp3-mac1 [1]; concentration 100.0 uM, n=2
  perc_inhibition_mean: 3.464%
SARS-CoV-2 nsp3-mac1 [2]; [16]
  inhibition at 50 µM: -5.46%
  inhibition at 100 µM: 3.46%

## Cc1n[nH]c(C)c1C(=O)N1CCC(c2ccn3ncc(C(=O)N4CCCCC4)c3c2)CC1 [ASAP-0000330]
SARS-CoV-2 nsp3-mac1 [1]; concentration 49.75 uM, n=2
  perc_inhibition_mean: 10.806%
SARS-CoV-2 nsp3-mac1 [1]; concentration 99.5 uM, n=2
  perc_inhibition_mean: 23.296%
SARS-CoV-2 nsp3-mac1 [2]; [17]
  inhibition at 49.75 µM: 10.8%
  inhibition at 99.5 µM: 23.3%

## Cc1cc(NCc2cnc3c(c2)NC(=O)CO3)cnc1C [ASAP-0000118]
SARS-CoV-2 nsp3-mac1 [1]; concentration 50.0 uM
  perc_inhibition_mean: 4.531%
SARS-CoV-2 nsp3-mac1 [2]; read-out: perc_inhibition_mean, batch_name=ASAP-0000118-001
  inhibition at 50 µM: 4.53%
